# Activity calls are given as the source filed them. The rule behind the calls is not given here.
# What was measured:
# [1] = target: T1, Kappa-type opioid receptor (Homo sapiens, UniProt P41145); assay: Binding affinity to human kappa-opioid receptor extracted from CHO cell membrane assessed as inhibition constant incubated for 60 mins in presence of [3H]U69593 by radioligand binding assay; format: cell membranes
# [2] = AUC (0 to infinity) in ICR mouse at 5 mg/kg, po measured after 24 hrs; format: ADME, organism-based; conditions: in vivo
# [3] = Metabolic stability in mouse liver assessed as intrinsic clearance at 1 uM measured upto 60 mins in presence of NADPH by LC-MS/MS analysis; format: ADME, tissue-based; conditions: read-out: CLH
# Mus musculus [4] = assay: Antinociceptive activity in acetic acid induced female Kunming mouse model assessed as reduction in number of torsions preadministered with nor-BNI for 24 hrs followed by compound administration for 30 mins and measured after 15 mins of acetic acid administration by abdominal contraction test; format: functional, organism-based; conditions: time 45.0 min
# [5] = Tmax in ICR mouse at 5 mg/kg, po measured after 24 hrs; format: ADME, organism-based; conditions: in vivo
# Mus musculus [6] = assay: Antinociceptive activity in acetic acid induced female Kunming mouse model assessed as reduction in number of torsions preadministered for 30 mins followed by acetic acid administration and measured after 15 mins by abdominal contraction test; format: functional; conditions: 0.75 h, time 45 min
# [7] = AUC (0 to t) in ICR mouse at 2 mg/kg, iv measured after 24 hrs; format: ADME, organism-based; conditions: in vivo
# [8] = Metabolic stability in mouse liver microsomes assessed as parent compound remaining at 1 uM measured after 60 min in presence of NADPH by LC-MS/MS analysis; format: ADME, Microsome; conditions: read-out: Stability
# [9] = Toxicity in male Kunming mouse assessed as effect on sedation at 1.3 to 10 mg/kg, IP administered for 30 mins and measured after 1 hrs by open field test; format: organism-based; conditions: in vivo, 1.5 h, dose 1.3-10 mg/kg, time 90 min
# [10] = Metabolic stability in mouse liver microsomes assessed as parent compound remaining at 1 uM measured after 30 min in presence of NADPH by LC-MS/MS analysis; format: ADME, Microsome; conditions: read-out: Stability
# [11] = target: Mu-type opioid receptor (Rattus norvegicus) (UniProt P33535); assay: Displacement of [3H] DAMGO from rat mu-opioid receptor extracted from CHO cell membrane at 0.1 uM by liquid scintillation counting analysis relative to control; format: cell membranes
# [12] = AUC (0 to t) in ICR mouse at 5 mg/kg, po measured after 24 hrs; format: ADME, organism-based; conditions: in vivo
# [13] = target: T1, Kappa-type opioid receptor; assay: Displacement of [3H] U69593 from human kappa-opioid receptor extracted from CHO cell membrane assessed as inhibition constant by liquid scintillation counting analysis; format: cell membranes
# [14] = AUC (0 to infinity) in ICR mouse at 2 mg/kg, iv measured after 24 hrs; format: ADME, organism-based; conditions: in vivo
# [15] = Cmax in ICR mouse at 5 mg/kg, po measured after 24 hrs; format: ADME, organism-based; conditions: in vivo
# [16] = Half-life in ICR mouse at 2 mg/kg, iv measured after 24 hrs; format: ADME, organism-based; conditions: in vivo
# [17] = Oral bioavailability in ICR mouse at 5 mg/kg measured after 24 hrs; format: ADME, organism-based; conditions: in vivo
# [18] = Metabolic stability in mouse liver microsomes assessed as half life at 1 uM measured upto 60 mins in presence of NADPH by LC-MS/MS analysis; format: ADME, Microsome
# [19] = Tmax in ICR mouse at 2 mg/kg, iv measured after 24 hrs; format: ADME, organism-based; conditions: in vivo
# [20] = Metabolic stability in mouse liver microsomes assessed as parent compound remaining at 1 uM measured after 5 min in presence of NADPH by LC-MS/MS analysis; format: ADME, Microsome; conditions: read-out: Stability
# [21] = Clearance in ICR mouse at 2 mg/kg, iv measured after 24 hrs; format: ADME, organism-based; conditions: in vivo
# [22] = Cmax in ICR mouse at 2 mg/kg, iv measured after 24 hrs; format: ADME, organism-based; conditions: in vivo
# [23] = Metabolic stability in mouse liver microsomes assessed as parent compound remaining at 1 uM measured after 15 min in presence of NADPH by LC-MS/MS analysis; format: ADME, Microsome; conditions: read-out: Stability
# [24] = Metabolic stability in mouse liver microsomes assessed as intrinsic clearance at 1 uM measured upto 60 mins in presence of NADPH by LC-MS/MS analysis; format: ADME, Microsome; conditions: read-out: CLH
# [25] = target: Delta-type opioid receptor (Rattus norvegicus) (UniProt P33533); assay: (§1) Displacement of [3H] DPDPE from rat delta-opioid receptor extracted from CHO cell membrane assessed as inhibition constant by liquid scintillation counting analysis; format: cell membranes
# [26] = Drug uptake in mouse plasma; format: ADME, cell-free
# [27] = Half-life in ICR mouse at 5 mg/kg, po measured after 24 hrs; format: ADME, organism-based; conditions: in vivo
# [28] = target: Delta-type opioid receptor (Rattus norvegicus) (UniProt P33533); assay: Displacement of [3H] DPDPE from rat delta-opioid receptor extracted from CHO cell membrane at 0.1 uM by liquid scintillation counting analysis relative to control; format: cell membranes
# [29] = target: T1, Kappa-type opioid receptor; assay: Displacement of [3H] U69593 from human kappa-opioid receptor extracted from CHO cell membrane at 0.1 uM by liquid scintillation counting analysis relative to control; format: cell membranes
# Mu-type opioid receptor = Mu-type opioid receptor (Rattus norvegicus, UniProt P33535); assay: (§2) Displacement of [3H] DAMGO from rat mu-opioid receptor extracted from CHO cell membrane assessed as inhibition constant by liquid scintillation counting analysis; format: cell membranes
# [30] = target: Delta-type opioid receptor (Rattus norvegicus, UniProt P33533); assay: as §1; format: cell membranes
# [31] = target: Mu-type opioid receptor (Rattus norvegicus) (UniProt P33535); assay: as §2; format: cell membranes
# Sequence of Delta-type opioid receptor (Rattus norvegicus) (P33533 whole entry): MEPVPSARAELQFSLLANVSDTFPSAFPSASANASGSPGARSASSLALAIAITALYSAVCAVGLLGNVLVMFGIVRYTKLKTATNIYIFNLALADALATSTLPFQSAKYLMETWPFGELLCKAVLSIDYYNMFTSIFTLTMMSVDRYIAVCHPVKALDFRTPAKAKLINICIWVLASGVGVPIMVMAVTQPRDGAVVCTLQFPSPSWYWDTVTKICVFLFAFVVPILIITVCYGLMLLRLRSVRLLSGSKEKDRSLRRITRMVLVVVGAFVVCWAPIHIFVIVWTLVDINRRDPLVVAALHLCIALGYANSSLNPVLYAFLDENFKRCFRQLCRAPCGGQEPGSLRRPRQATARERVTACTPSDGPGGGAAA
# T1 sequence (P41145 whole entry): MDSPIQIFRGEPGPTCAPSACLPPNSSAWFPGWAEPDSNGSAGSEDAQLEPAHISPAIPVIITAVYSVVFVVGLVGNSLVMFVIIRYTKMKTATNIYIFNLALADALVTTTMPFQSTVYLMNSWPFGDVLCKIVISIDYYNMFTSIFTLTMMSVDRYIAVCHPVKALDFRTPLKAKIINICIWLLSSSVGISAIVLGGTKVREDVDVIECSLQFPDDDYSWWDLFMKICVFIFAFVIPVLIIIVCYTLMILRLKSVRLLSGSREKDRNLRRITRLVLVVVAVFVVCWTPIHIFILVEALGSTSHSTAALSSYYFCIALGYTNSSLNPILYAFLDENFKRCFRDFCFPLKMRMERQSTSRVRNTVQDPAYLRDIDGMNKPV
# Sequence of Mu-type opioid receptor (Rattus norvegicus) (P33535 whole entry): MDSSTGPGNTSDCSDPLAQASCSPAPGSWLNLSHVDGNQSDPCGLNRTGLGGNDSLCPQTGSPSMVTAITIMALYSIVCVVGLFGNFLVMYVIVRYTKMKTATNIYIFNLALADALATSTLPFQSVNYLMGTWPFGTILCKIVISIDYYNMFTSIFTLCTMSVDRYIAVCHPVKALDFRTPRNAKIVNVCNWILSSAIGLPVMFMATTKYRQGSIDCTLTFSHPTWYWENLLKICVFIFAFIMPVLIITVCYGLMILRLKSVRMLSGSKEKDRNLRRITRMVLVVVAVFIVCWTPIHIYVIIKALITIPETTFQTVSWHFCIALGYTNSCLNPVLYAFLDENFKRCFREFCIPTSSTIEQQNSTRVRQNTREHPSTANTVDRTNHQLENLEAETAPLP
# Sequence of Delta-type opioid receptor (P33533 whole entry): as the sequence (P33533 whole entry) above
# Sequence of Mu-type opioid receptor (P33535 whole entry): as the sequence (P33535 whole entry) above
smiles,measurement,setting,value
CN(C)C[C@@H]1CN(CCc2cccc(C(F)(F)F)c2)CC[C@@]1(O)c1cccc(O)c1,Ki,[1],25.8 nM
COc1cccc([C@@]2(O)CC[C@H](N(Cc3ccccc3)S(=O)(=O)c3cccc(Cl)c3)C[C@@H]2CN(C)C)c1.Cl,AUC(0-inf),[2],1.64 ng·h/mL
same,CLint scaled at 1 µM,[3],1390 mL/min/kg
same,Activity,Mus musculus [4],inactive
same,Tmax,[5],4.98 min
same,ED50,Mus musculus [6],1.3 mg/kg
same,AUC(0-t) at 24 h,[7],131 ng·h/mL
same,"remaining at 1 h, 1 µM",[8],4.59%
same,Activity,[9],Non-Toxic
same,"remaining at 0.5 h, 1 µM",[10],5.89%
same,inhibition,[11],25.8%
same,AUC(0-t) at 24 h,[12],1.34 ng·h/mL
same,Ki,[13],1.9 nM
same,AUC(0-inf),[14],136 ng·h/mL
same,Cmax,[15],3.87 ng/mL
same,half-life,[16],71.4 min
same,bioavailability,[17],0.53%
same,half-life at 1 µM,[18],3.95 min
same,Tmax,[19],4.98 min
same,"remaining at 5 min, 1 µM",[20],29%
same,clearance,[21],246 mL/min/kg
same,Cmax,[22],221 ng/mL
same,"remaining at 0.25 h, 1 µM",[23],6.7%
same,microsomal CLint at 1 µM,[24],351 µL/min/mg
same,Activity,[25],inactive
same,Drug uptake,[26],Active
same,half-life,[27],16.2 min
COc1cccc(C2(O)CCC(NS(=O)(=O)c3cccc(Cl)c3)CC2CN(C)C)c1 (centres undefined),inhibition,[11],22.8%
same,inhibition,[28],0%
same,inhibition,[29],15%
COc1cccc(C2(O)CCC(NS(=O)(=O)Cc3ccccc3)CC2CN(C)C)c1 (centres undefined),inhibition,[11],41.1%
same,inhibition,[28],1%
same,inhibition,[29],11.2%
COc1cccc(C2(O)CCC(NS(=O)(=O)Cc3cccc(Cl)c3)CC2CN(C)C)c1 (centres undefined),inhibition,[11],35.8%
same,inhibition,[28],0%
same,inhibition,[29],6.9%
COc1cccc(C2(OC(=O)c3ccccc3)CCC(NS(=O)(=O)c3ccccc3)CC2CN(C)C)c1 (centres undefined),inhibition,[11],18.1%
same,inhibition,[28],0%
same,inhibition,[29],12.9%
CN(C)CC1CC(N(Cc2ccccc2)S(=O)(=O)c2cccc(Cl)c2)CCC1(O)c1cccc(O)c1.Cl (centres undefined),Ki,Mu-type opioid receptor,18.8 nM
same,Ki,[13],3.1 nM
same,inhibition,[28],20.7%
same,Ki,[30],201 nM
same,Drug uptake,[26],Active
COc1cccc(C2(OC(=O)c3ccccc3)CCC(N(C)S(=O)(=O)Cc3cccc(Cl)c3)CC2CN(C)C)c1 (centres undefined),inhibition,[11],0%
same,inhibition,[28],0%
same,inhibition,[29],16.6%
COc1cccc(C2(O)CCC(N(Cc3ccccc3)S(=O)(=O)c3cccs3)CC2CN(C)C)c1 (centres undefined),inhibition,[11],9.5%
same,inhibition,[28],0%
same,inhibition,[29],14.9%
COc1cccc(C2(O)CCC(NS(=O)(=O)c3ccccc3)CC2CN(C)C)c1 (centres undefined),inhibition,[11],11.8%
same,inhibition,[28],7.51%
same,inhibition,[29],7.2%
COc1cccc(C2(O)CCC(N(C)S(=O)(=O)c3cccs3)CC2CN(C)C)c1 (centres undefined),inhibition,[11],0%
same,inhibition,[28],30.1%
same,inhibition,[29],22%
O=C(O)Cc1ccccc1Nc1c(Cl)cccc1Cl [DICLOFENAC],CLint scaled at 1 µM,[3],116 mL/min/kg
same,half-life at 1 µM,[18],47.1 min
same,microsomal CLint at 1 µM,[24],29.4 µL/min/mg
COc1cccc(C2(O)CCC(N(Cc3ccccc3)S(=O)(=O)c3cccc(Cl)c3)CC2CN(C)C)c1 (centres undefined),inhibition,[11],6.7%
same,inhibition,[28],0%
COc1cccc(C2(O)CCC(N(C)S(=O)(=O)c3cccc(Cl)c3)CC2CN(C)C)c1 (centres undefined),inhibition,[11],16.5%
same,inhibition,[28],14.8%
same,inhibition,[29],22.7%
COc1cccc([C@]2(O)CC[C@@H](N(Cc3ccccc3)S(=O)(=O)c3cccc(Cl)c3)C[C@H]2CN(C)C)c1,Activity,[31],inactive
same,Activity,[13],inactive
COc1cccc(C2(O)CCC(N(Cc3ccccc3)S(=O)(=O)c3ccccc3)CC2CN(C)C)c1 (centres undefined),inhibition,[11],14.8%
same,inhibition,[28],0%
same,inhibition,[29],39.7%
COc1cccc(C2(O)CCC(NS(=O)(=O)c3cccs3)CC2CN(C)C)c1 (centres undefined),inhibition,[11],1.2%
same,inhibition,[28],0%
same,inhibition,[29],15.2%
COc1cccc(C2(O)CCC(N(C)S(=O)(=O)c3ccccc3)CC2CN(C)C)c1 (centres undefined),inhibition,[11],38.6%
same,inhibition,[28],12.9%
same,inhibition,[29],15.3%
COc1cccc(C2(OC(=O)c3ccccc3)CCC(NS(=O)(=O)c3cccc(Cl)c3)CC2CN(C)C)c1 (centres undefined),inhibition,[11],14.4%
same,inhibition,[28],0%
same,inhibition,[29],30.5%
COc1cccc(C2(O)CCCCC2CN(C)C)c1 (centres undefined),inhibition,[11],6%
same,inhibition,[28],0%
same,inhibition,[29],0%
COc1cccc(C2(OC(=O)c3ccccc3)CCC(N(C)S(=O)(=O)Cc3ccccc3)CC2CN(C)C)c1 (centres undefined),inhibition,[11],3.3%
same,inhibition,[28],0%
same,inhibition,[29],28.8%

# Reference: ChEMBL document CHEMBL5608188, “Discovery of N'-benzyl-3-chloro-N-((1S,3R,4R)-3-((dimethylamino)methyl)-4-hydroxy-4-(3-methoxyphenyl)cyclohexyl)benzenesulfonamide as a novel selective KOR ligand” (Eur J Med Chem, 2024)
